Laboratory results published in paper PMC10739329, “Correlation of bioactive marker compounds of an orally applied Morus alba root bark extract with toxicity and efficacy in BALB/c mice” (Frontiers in Pharmacology, 2023).
Values joined by “and” are separate entries in the source; they are usually repeats but may differ in a detail not shown here. Equal values may be shown once. Read-outs that look alike come from different tables or passages of the source.

Key:
[1] = MS/MS search for metabolites of sanggenons C and D in serum samples; assay type: in vivo, BALB/c mice
Experimental: In the present study, concentration of bioactive sanggenons C and D was determined in serum and tissue samples and correlated with the administered the doses of MA60. […] Already during dose finding and acute toxicity studies, a high variation in serum concentrations of the selected marker compounds was detected within all three dose groups (30, 100, and 300 mg/kg). No dose dependency could be observed regarding the serum concentrations. This might be due to i) inhomogeneities in the CMC suspension of the MA60 extract, ii) the inter-individual differences in the resorption of sanggenons, or iii) the formation of sanggenon metabolites: • (i) For oral gavage administration, MA60 was suspended in 0.3% carboxymethyl cellulose (CMC) as vehicle. This is based on literature data, where even a higher dose of up to 400 mg/kg of a 70% EtOH extract of M. alba root bark ([Lim et al., 2013]) was previously administered to mice per gavage feeding. […] In the present study, an MS/MS analysis was conducted to also search for metabolites of the selected marker compounds sanggenon C and sanggenon D. The search included (di)glucuronides and hydroxylated metabolites as well as further conjugates such as sulfated metabolites.

[2] = UPLC-ESI-MS quantitation of sanggenons C and D in serum and tissue samples, acute toxicity study; assay type: in vivo, BALB/c mice; conditions: for serum concentration: one (efficacy study) and three (acute toxicity study) hours after the last oral MA60 administration; for concentration at 3 h: BALB/c, mouse, serum, oral
[3] = in vivo; cited from earlier work
[4] = MA60 100 mg/kg oral once daily for seven days, samples 68-71 in order, sacrificed 24 h after last application
[5] = MA60 30 mg/kg oral, samples 26-30 in order, 3 h after last treatment
[6] = MA60 100 mg/kg oral, samples 31-35 in order, 3 h after last treatment
[7] = MA60 300 mg/kg oral, samples 36-40 in order, 3 h after last treatment

Compound: sanggenon D
- metabolites ((di)glucuronides, hydroxylated, sulfated conjugates) in serum samples ([1]; MS/MS analysis after oral MA60): neither the corresponding masses nor the phase-II-conjugates could be detected
- quantified amount of sanggenon D liver, individual samples [4]: n.f.
- quantified amount of sanggenon D lung, individual samples [4]: n.f.
- sanggenon D in liver (MA60 100 mg/kg oral, after 24 h): could not be determined
- sanggenon D in liver (MA60 100 mg/kg oral, mice sacrificed after 1 h): high amount
- quantified amount of sanggenon D lung, individual samples (MA60 100 mg/kg oral, samples 64-67 in order, sacrificed 1 h after treatment): n.f.
- quantified amount of sanggenon D liver, individual samples [2, 5]: n.f.
- quantified amount of sanggenon D lung, individual samples [2, 5]: n.f. (4×) and 1,005.12 ng/mL
- quantified amount of sanggenon D liver, individual samples [2, 6]: n.f. and 34.18 ng/mL and 26.97 ng/mL
- quantified amount of sanggenon D lung, individual samples [2, 6]: n.f. (2×) and 2,980.27 ng/mL and 343.27 ng/mL and 10,306.71 ng/mL
- quantified amount of sanggenon D liver, individual samples [2, 7]: 70.13 ng/mL and 89.18 ng/mL and 979.27 ng/mL and 996.87 ng/mL and 447.53 ng/mL
- quantified amount of sanggenon D lung, individual samples [2, 7]: n.f.
- sanggenon D concentration in liver tissues ([2]; high dose group (300 mg/kg), #38 and #39): ~1 µg/mL
- sanggenon D in liver samples ([2]; low dose group (MA60 30 mg/kg oral)): not detected
- serum concentration [2]: less than 1%

Compound: C=C(C)[C@H](CC=C(C)C)Cc1c(O)cc(OC)c(C(=O)/C=C/c2ccc(O)cc2O)c1O [kuraridin]
- metabolites found in rat serum [3]: mono- and di-glucuronides as well as hydroxylated derivatives

Compound: CC(C)=CC[C@]12Oc3cc(O)c([C@H]4C=C(C)C[C@H](c5ccc(O)cc5O)[C@H]4C(=O)c4ccc(O)cc4O)c(O)c3C(=O)[C@@]1(O)Oc1cc(O)ccc12 [sanggenon C]
- metabolites ((di)glucuronides, hydroxylated, sulfated conjugates) in serum samples ([1]; mouse, in vivo, po): neither the corresponding masses nor the phase-II-conjugates could be detected
- serum concentrations of sanggenon C (group) (MA60 100 mg/kg oral, after 24 h (#68-#71), below this value or not detectable): below 2.77 ng/mL
- concentration at 3 h ([2]; 30 mg/kg, MA60 30 mg/kg oral once daily 7 days, 3 h after last treatment, read-out: amount of sanggenon C in serum (dose group)): < 9.1 ng/mL
- concentration at 3 h ([2]; 30 mg/kg, MA60 30 mg/kg oral, samples 26-30 in order, 3 h after last treatment, read-out: quantified amount of sanggenon C serum, individual samples): 4.97 ng/mL
- concentration at 3 h ([2]; 100 mg/kg, MA60 100 mg/kg oral once daily 7 days, 3 h after last treatment, read-out: amount of sanggenon C in serum (dose group)): 7.94 to 31.5 ng/mL
- concentration at 3 h ([2]; 300 mg/kg, MA60 300 mg/kg oral once daily 7 days, 3 h after last treatment, read-out: amount of sanggenon C in serum (dose group)): 21.2 to 227 ng/mL
- concentration at 3 h ([2]; mice sacrificed 3 hours after the last application, read-out: average serum concentration of sanggenon C): < 2 ng/mL
- quantified amount of sanggenon C serum, individual samples [2, 5]: n.f. (3×) and 9.10 ng/mL
- quantified amount of sanggenon C serum, individual samples [2, 6]: 7.94 ng/mL and 9.28 ng/mL and 31.53 ng/mL and 11.17 ng/mL and 13.02 ng/mL
- quantified amount of sanggenon C serum, individual samples [2, 7]: 25.74 ng/mL and 21.21 ng/mL and 227.26 ng/mL and 24.13 ng/mL and 103.00 ng/mL
- serum concentration [2]: less than 1%
